Five molecules from US10920265B2, “Compounds and methods for detection of enzymes that remove methyl succinyl groups from epsilon-amino lysine moieties” (Enzo Life Sciences, Inc., priority 2011, dated 2021) can be followed below.

*: point of attachment. AMC = Cc1cc(=O)oc2cc(N*)ccc12

What all share (type): biochemical
One assay deals with T1, HDAC11 (Homo sapiens, UniProt Q96DB2).
T1 construct: purchased ENZO Life Sciences BML-SE560
T1 sequence (Q96DB2 1-347): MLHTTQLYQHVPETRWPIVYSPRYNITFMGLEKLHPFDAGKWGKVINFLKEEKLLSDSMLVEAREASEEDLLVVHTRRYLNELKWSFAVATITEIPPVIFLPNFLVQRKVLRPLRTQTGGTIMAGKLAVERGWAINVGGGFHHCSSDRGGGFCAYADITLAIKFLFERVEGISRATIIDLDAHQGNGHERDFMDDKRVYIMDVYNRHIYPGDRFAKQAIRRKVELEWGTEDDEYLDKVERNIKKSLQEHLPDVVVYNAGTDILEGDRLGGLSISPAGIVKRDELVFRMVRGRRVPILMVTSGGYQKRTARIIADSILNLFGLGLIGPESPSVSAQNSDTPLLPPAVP
The assay is described as follows: HDAC activity with fluorogenic lysyl substrates. The note with it: 50 μM substrate. The procedure, abridged: (§1)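 37 °C; recombinant human enzymes or HeLa extract; acetyl-, succinyl- or trifluoroacetyl-lysine AMC substrates (e.g. Ac-Lys(Succ.)-AMC) in SIRT1 fluorometric kit format; trypsin development, AMC fluorescence read-out.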

The target in the next assay is T2, SIRT2 (Homo sapiens, UniProt Q8IXJ6).
T2 sequence (Q8IXJ6 1-389): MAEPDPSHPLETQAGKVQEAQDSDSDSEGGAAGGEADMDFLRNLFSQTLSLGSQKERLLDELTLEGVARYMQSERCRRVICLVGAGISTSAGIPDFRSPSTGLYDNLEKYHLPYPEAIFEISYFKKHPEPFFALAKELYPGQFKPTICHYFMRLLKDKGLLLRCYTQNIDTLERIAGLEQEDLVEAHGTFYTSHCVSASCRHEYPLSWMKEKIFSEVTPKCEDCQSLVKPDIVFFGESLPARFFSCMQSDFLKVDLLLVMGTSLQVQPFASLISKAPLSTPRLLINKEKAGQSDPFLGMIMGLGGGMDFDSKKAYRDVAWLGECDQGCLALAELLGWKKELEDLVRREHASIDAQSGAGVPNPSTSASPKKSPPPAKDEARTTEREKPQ
The assay is described as follows: Sirtuin activity with fluorogenic lysyl substrates. The following applies: 50 μM substrate, 500 μM NAD^+. An outline of the steps: as §1

The target in a further assay is T3, SIRT4 (Homo sapiens, UniProt Q9Y6E7).
T3 construct: purchased BPS Bioscience 50015
The assay can be described thus: Sirtuin activity with fluorogenic lysyl substrates. The note with it: 50 μM substrate, 500 μM NAD^+. An outline of the steps: as §1

A further assay addresses T4, HDAC9 (Homo sapiens, UniProt Q9UKV0).
T4 construct: made in house; host or cells: E. coli
The assay can be described thus: HDAC activity with fluorogenic lysyl substrates. The following applies: 50 μM substrate. The procedure, abridged:
as §1

The next assay deals with T5, HDAC5 (Homo sapiens, UniProt Q9UQL6).
T5 construct: made in house; host or cells: E. coli
The assay is described as follows: HDAC activity with fluorogenic lysyl substrates. The note with it: 50 μM substrate. An outline of the steps: as §1

The next assay concerns the target T6, HDAC7 (Homo sapiens, UniProt Q8WUI4).
T6 construct: made in house; host or cells: E. coli
T6 sequence (Q8WUI4 483-903): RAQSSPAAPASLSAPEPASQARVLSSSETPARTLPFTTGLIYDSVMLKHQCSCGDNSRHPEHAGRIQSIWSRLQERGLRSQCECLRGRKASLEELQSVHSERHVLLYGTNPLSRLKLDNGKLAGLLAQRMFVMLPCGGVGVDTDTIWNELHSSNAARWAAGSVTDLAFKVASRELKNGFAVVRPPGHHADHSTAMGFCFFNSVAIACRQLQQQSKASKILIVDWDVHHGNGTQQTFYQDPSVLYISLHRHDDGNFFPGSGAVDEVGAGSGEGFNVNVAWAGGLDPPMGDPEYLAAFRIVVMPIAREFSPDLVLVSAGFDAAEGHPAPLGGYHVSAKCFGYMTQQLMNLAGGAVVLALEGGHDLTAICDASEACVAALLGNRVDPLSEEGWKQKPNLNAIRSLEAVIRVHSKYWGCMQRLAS
The assay is described as follows: HDAC activity with fluorogenic lysyl substrates. The note with it: 50 μM substrate. The procedure, abridged: as §1

T4 sequence (Q9UKV0 644-1066 isoform Q9UKV0-5): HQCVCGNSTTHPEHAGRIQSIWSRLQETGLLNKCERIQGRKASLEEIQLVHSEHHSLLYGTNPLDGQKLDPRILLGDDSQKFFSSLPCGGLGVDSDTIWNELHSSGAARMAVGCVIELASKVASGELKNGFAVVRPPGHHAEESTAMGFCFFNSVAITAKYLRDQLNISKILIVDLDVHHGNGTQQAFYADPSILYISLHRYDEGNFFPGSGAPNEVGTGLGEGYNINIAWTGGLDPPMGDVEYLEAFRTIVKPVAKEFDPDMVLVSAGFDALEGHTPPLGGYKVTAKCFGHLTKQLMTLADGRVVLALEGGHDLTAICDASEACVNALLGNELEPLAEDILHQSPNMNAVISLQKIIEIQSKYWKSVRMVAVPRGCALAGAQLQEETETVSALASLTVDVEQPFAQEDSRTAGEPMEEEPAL
T5 sequence (Q9UQL6 656-1122): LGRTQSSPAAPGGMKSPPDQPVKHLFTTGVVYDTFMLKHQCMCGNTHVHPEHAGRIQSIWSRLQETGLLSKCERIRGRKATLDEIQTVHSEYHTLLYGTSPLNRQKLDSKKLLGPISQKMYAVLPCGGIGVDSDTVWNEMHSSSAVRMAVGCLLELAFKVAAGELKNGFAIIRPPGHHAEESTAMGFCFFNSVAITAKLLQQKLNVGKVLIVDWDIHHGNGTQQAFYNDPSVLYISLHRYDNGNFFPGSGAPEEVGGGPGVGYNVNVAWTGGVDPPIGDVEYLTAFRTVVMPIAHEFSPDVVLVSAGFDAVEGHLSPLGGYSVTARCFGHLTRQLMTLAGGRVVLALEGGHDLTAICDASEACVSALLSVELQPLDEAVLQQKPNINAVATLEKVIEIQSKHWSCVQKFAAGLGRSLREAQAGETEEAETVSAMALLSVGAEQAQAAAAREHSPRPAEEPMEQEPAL
T3 sequence (Q9Y6E7 29-314): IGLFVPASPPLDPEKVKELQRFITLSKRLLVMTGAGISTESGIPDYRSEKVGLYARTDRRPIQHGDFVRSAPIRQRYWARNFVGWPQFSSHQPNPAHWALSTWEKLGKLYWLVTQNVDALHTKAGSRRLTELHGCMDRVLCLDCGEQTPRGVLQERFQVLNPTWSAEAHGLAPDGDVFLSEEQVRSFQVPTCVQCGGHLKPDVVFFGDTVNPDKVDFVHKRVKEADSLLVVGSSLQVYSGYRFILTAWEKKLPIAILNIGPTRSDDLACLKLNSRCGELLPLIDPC

Consider “Ac-Arg-His-Lys-Lys(ε-acetyl)-AMC (Ac-RHKK(Ac)-{AMC}; SMILES CC(=O)NCCCC[C@H](NC(=O)[C@H](CCCCN)NC(=O)[C@H](Cc1c[nH]cn1)NC(=O)[C@H](CCCNC(=N)N)NC(C)=O)C(=O)Nc1ccc2c(C)cc(=O)oc2c1) [Ac-RHKK(Ac)-AMC, p53 peptide fluorogenic deacetylase substrate, Cat. # BML-KI177, reference compound]”, for which, in the assay with HDAC11, the “Activity (pmol/min/μg)” value is recorded as “Ac-RHKK(Ac)-AMC/6.09 pmol/min/μg”.

As to `CC(=O)NCCCCC(NC(C)=O)C(=O)Nc1ccc2c(C)cc(=O)oc2c1` (stereo not shown) [Ac-Lys(Ac.)-AMC, Ac-Lys(ε-acetyl)-AMC, reference compound], the “Activity” value at SIRT2 came to 0.016 pmol/min/µg; on HDAC9 it was 0.027 pmol/min/µg; on HDAC11, 4.15 pmol/min/µg. Also, the “Activity (pmol/min/μg)” value at SIRT4, at HDAC5 and at HDAC7 was “Undetectable” in each case.

In the case of `CC(=O)N[C@@H](CCCCNC(=O)CCC(=O)O)C(=O)Nc1ccc2c(C)cc(=O)oc2c1` [Compound 1, N—(N^α-acetyl-L-Lysine(N^ε-succinyl))-AMC], the “Activity (pmol/min/μg)” value on SIRT2, at SIRT4, on HDAC9, on HDAC11, at HDAC5 and on HDAC7 was “Undetectable” each time.

As for `COC(=O)CCC(=O)NCCCC[C@H](NC(C)=O)C(=O)Nc1ccc2c(C)cc(=O)oc2c1` [Compound 5, N—(N^α-acetyl-L-Lysine(N^ε-methyl succinyl))-AMC], the “Activity” value at HDAC9 was determined as 0.135 pmol/min/µg. The “Activity (pmol/min/μg)” value on HDAC5 and on HDAC7 was “Undetectable” each time.

With `CCCCCCCCCCCCCC(=O)NCCCC[C@H](NC(C)=O)C(=O)Nc1ccc2c(C)cc(=O)oc2c1` [Compound 4, N—(N^α-acetyl-L-Lysine(N^ε-myristoyl))-AMC], the “Activity (pmol/min/μg)” value at HDAC9, on HDAC5 and at HDAC7 was “Undetectable” in each case.
